Data from ChEMBL document CHEMBL1155613, “Urinary metabolites of gallic acid in rats and their radical-scavenging effects on 1,1-diphenyl-2-picrylhydrazyl radical” (J Nat Prod, 2000).

System: Radical scavenging activity
Experiment: Antioxidant activity assessed as DPPH free radical scavenging activity
Assay type: functional

EC50 [µM]	Structure (SMILES)
> 100	COc1c(O)cc(C(=O)O)cc1O
19.9	Cc1c(C)c2c(c(C)c1O)CCC(C)(CCCC(C)CCCC(C)CCCC(C)C)O2 (racemic) [alpha-TOCHOPHEROL]
99.6	COc1c(O)cccc1O [2-METHOXYRESORCINOL]
4.2	Oc1cccc(O)c1O [PYROGALLOL]

The next lines start with the molecule.

Structure (SMILES)	EC50 [µM]
COc1c(O)cc(C(=O)O)cc1OS(=O)(=O)O	> 100
COc1c(O)cccc1O[C@@H]1O[C@H](C(=O)O)[C@@H](O)[C@H](O)[C@H]1O	> 100
O=C1O[C@H]([C@@H](O)CO)C(O)=C1O [ASCORBIC ACID]	16.6
O=C(O)c1cc(O)c(O)c(O)c1 [GALLIC ACID]	4.2
